We go through 23 compounds from patent US10669238B2, “Irreversible bruton's tyrosine kinase inhibitor” (HEFEI INSTITUTES OF PHYSICAL SCIENCE, CHINESE ACADEMY OF …, priority 2016, dated 2020).

BTK protein kinase, sequence (Q06187 whole entry): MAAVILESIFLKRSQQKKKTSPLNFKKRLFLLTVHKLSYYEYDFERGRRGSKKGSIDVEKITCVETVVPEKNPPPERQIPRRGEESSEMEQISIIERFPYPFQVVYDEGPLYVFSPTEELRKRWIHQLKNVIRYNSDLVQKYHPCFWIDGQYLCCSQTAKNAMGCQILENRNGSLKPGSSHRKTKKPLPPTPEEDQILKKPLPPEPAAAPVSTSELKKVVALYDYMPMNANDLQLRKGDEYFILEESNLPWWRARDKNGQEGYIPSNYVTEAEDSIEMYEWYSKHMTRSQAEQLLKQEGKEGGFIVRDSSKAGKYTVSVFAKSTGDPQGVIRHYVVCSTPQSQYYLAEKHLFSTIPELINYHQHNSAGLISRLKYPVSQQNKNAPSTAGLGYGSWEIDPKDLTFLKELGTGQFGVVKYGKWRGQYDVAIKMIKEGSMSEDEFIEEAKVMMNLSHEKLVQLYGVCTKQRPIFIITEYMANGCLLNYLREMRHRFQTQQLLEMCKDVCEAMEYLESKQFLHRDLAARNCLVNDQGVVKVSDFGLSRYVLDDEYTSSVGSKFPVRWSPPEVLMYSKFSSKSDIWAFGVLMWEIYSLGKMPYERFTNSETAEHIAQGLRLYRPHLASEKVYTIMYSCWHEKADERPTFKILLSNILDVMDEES

One assay deals with BTK protein kinase (Homo sapiens, UniProt Q06187). The assay is described as follows: In vitro enzymatic activity against BTK (ADP-Glo). It is filed as biochemical. Conditions: compound with BTK 4 hours at room temperature; ATP 10 μM, 37° C. 1 hour; values given in μM. The procedure:
In vitro enzymatic activity of the compounds against BTK was determined in a experimental assay of in vitro enzymatic activity using […] kit (purchased from Progema, USA).
9 μL of BTK protein kinase (at a concentration of 1.5 ng/μL) was used to react with compounds (1 μL) shown in the following table that were diluted three times in gradient at room temperature for 4 hours (the final concentration of the compound being 10 μM, 3 μM, 1 μM, 0.3 μM, 0.1 μM, 0.03 μM, 0.01 μM, 0.003 μM);
2 μL of ATP and 3 μL of the substrate Poly(4:1 Glu, Tyr)Peptide (Promega, USA) (the final concentrations being 10 μM and 0.2 μg/μL, respectively) were added to allow reaction at 37° C. for 1 hour;
5 μL of BTK kinase solution after reaction was taken and added into 5 μL of ADP-Glo™ (Promega, USA) reagent to allow reaction at room temperature for 40 mins so as to terminate the kinase reaction and exhaust the remaining ATP;
10 μL kinase detecting reagent was added to convert ADP to ATP, and newly synthesized ATP was detected using coupled luciferase/[…] reaction, then the IC50 values were calculated by using a plotting method based on the Envision reading.
In general terms: In ADP-Glo the light output rises with the ADP produced.
Broadly, the IC50 is the point on the concentration scale where inhibition reaches its midpoint. High values mean lower potency, low ones higher potency. On to `C=CC(=O)Nc1cc(NC(=O)c2ccc(C(C)(C)C)cc2)c(C)c(-c2cc(Nc3ccc(C(=O)N4CCOCC4)cc3)c(=O)n(C)c2)c1` [Compound 8, 4-(tert-butyl)-N-(5-(2-acrylamide)-2-methyl-3-(1-methyl-5-((4-(morpholin-4-carbonyl)phenyl)amino)-6-oxo-1,6-dihydropyridin-3-yl)phenyl)benzoylamide], for which inhibition was half-maximal at 2.61 µM (IC50). This counts as single-digit micromolar.

In turn, `Cc1c(NC(=O)c2ccc(C(C)(C)C)cc2)cccc1-c1cc(Nc2cccc(NC(=O)CCl)c2)c(=O)n(C)c1` [Compound 22, N-(3-(5-((3-chloroacetamidephenyl)amino)-1-methyl-6-oxo-1,6-dihydropyridin-3-yl)-2-methylphenyl)-4-(tert-butyl)benzamide] registered an IC50 of 5.53 µM.

The same assay, now with this note: compound with BTK 4 hours at room temperature; ATP 10 μM, 37° C. 1 hour; values in nM.
Compound `CCC(=O)Nc1cc(Nc2cc(-c3cccc(NC(=O)c4ccc(C(C)(C)C)cc4)c3C)cn(C)c2=O)ccc1C(=O)N1CCN(C(=O)OC(C)(C)C)CC1` [Compound 39, tertbutyl 4-(2-propanamide-4-((5-(3-(4-(tert-butyl)benzamide)-2-methylphenyl)-1-methyl-2-oxo-1,2-dihydropyridin-3-yl)amino)benzoyl)piperazin-1-carboxylate] registered a half-inhibitory concentration (IC50) of 0.503 µM.

`C=CC(=O)Nc1cc(Nc2cc(-c3cccc(NC(=O)c4cc5c(s4)CCCC5)c3C)cn(C)c2=O)ccc1N1CCN(C(C)=O)CC1` [Compound 79, N-(3-(5-((4-(4-acetylpiperazin-1-yl)-3-acrylamidephenyl)amino)-1-methyl-6-oxo-1,6-dihydropyridin-3-yl)-2-methylphenyl)-4,5,6,7-tetrahydrobenzo[b]thiophene-2-carboxamide]: the half-inhibitory concentration (IC50) worked out at 0.082 µM.

`C=CC(=O)Nc1cc(Nc2cc(-c3cccc(NC(=O)c4cc5ccccc5s4)c3C)cn(C)c2=O)ccc1N1CCN(C(C)=O)CC1` [Compound 92, N-(3-(5-((4-(4-acetylpiperazin-1-yl)-3-acrylamidephenyl)amino)-1-methyl-6-oxo-1,6-dihydropyridin-3-yl)-2-methylphenyl)benzo[b]thiophene-2-carboxamide] gave an IC50 of 0.0717 µM.

`C=CC(=O)Nc1cc(Nc2cc(-c3cccc(NC(=O)c4ccc(N(C)C)cc4)c3C)cn(C)c2=O)ccc1C(=O)N1CCCC(O)C1` (centres unmarked) [Compound 55, N-(3-(5-((3-acrylamide-4-(3-hydroxypiperdin-1-carbonyl)phenyl)amino)-1-methyl-6-oxo-1,6-dihydropyridin-3-yl)-2-methylphenyl)-4-(dimethylamino)benzoylamide] showed an IC50 of 0.181 µM.

Turning to `C=CC(=O)Nc1cc(Nc2cc(-c3cccc(NC(=O)c4cc5ccccc5s4)c3C)cn(C)c2=O)ccc1-n1cccn1` [Compound 85, N-(3-(5-((3-acrylamide-4-(1H-pyrazol-1-yl)phenyl)amino)-1-methyl-6-oxo-1,6-dihydropyridin-3-yl)-2-methylphenyl)benzo[b]thiophene-2-carboxamide], the IC50 was found to be 0.13 µM.

For the compound `C=CC(=O)Nc1cc(Nc2cc(-c3cccc(NC(=O)c4ccc(C)c(C(F)(F)F)c4)c3C)cn(C)c2=O)ccc1C(=O)N1CCOCC1` [Compound 63, N-(3-(5-((3-acrylamide-4-(morpholin-4-carbonyl)phenyl)amino)-1-methyl-6-oxo-1,6-dihydropyridin-3-yl)-2-methylphenyl)-4-methyl-3-(trifluoromethyl)benzoylamide], the half-inhibitory concentration (IC50) was 0.8 µM. Against the preceding compound, the IC50 is about 6.2-fold higher.

On to `C#CC(=O)Nc1cc(C(=O)N2CCOCC2)ccc1Nc1cc(-c2cccc(NC(=O)c3ccc(C(C)(C)C)cc3)c2C)cn(C)c1=O` [Compound 4, N-(3-(5-((2-propynamide-4-(morpholin-4-carbonyl)phenyl)amino)-1-methyl-6-oxo-1,6-dihydropyridin-3-yl)-2-methylphenyl)-4-(tert-butyl)benzamide], for which 0.0326 µM corresponded to half-maximal inhibition (IC50).

`CCC(=O)Nc1cc(Nc2cc(-c3cccc(NC(=O)c4ccc(C(C)(C)C)cc4)c3C)cn(C)c2=O)ccc1C(=O)N1CCNCC1` [Compound 41, N-(3-(5-((3-propanamide-4-(piperazin-1-carbonyl)phenyl)amino)-1-methyl-6-oxo-1,6-dihydropyridin-3-yl)-2-methylphenyl)-4-(tert-butyl)benzamide] returned an IC50 of 0.042 µM.

The compound `C=CC(=O)Nc1cc(Nc2cc(-c3cccc(NC(=O)c4cc5c(s4)CCCC5)c3C)cn(C)c2=O)ccc1-n1cccn1` [Compound 86, N-(3-(5-((3-acrylamide-4-(1H-pyrazol-1-yl)phenyl)amino)-1-methyl-6-oxo-1,6-dihydropyridin-3-yl)-2-methylphenyl)-4,5,6,7-tetrahydrobenzo[b]thiophene-2-carboxamide] showed an IC50 of 0.0099 µM.

As to `C=CC(=O)Nc1cc(Nc2cc(-c3cccc(NC(=O)c4ccc(C(F)(F)F)cc4)c3C)cn(C)c2=O)ccc1C(=O)N1CCOCC1` [Compound 60, N-(3-(5-((3-acrylamide-4-(morpholin-4-carbonyl)phenyl)amino)-1-methyl-6-oxo-1,6-dihydropyridin-3-yl)-2-methylphenyl)-4-(trifluoromethyl)benzoylamide], inhibition was half-maximal at 0.104 µM (IC50).

The compound `C=CC(=O)Nc1cc(Nc2cc(-c3cccc(NC(=O)c4cc5c(s4)CCCC5)c3C)cn(C)c2=O)ccc1N1CCN(C(C)C)CC1` [Compound 89, N-(3-(5-((3-acrylamide-4-(4-isopropylpiperazin-1-yl)phenyl)amino)-1-methyl-6-oxo-1,6-dihydropyridin-3-yl)-2-methylphenyl)-4,5,6,7-tetrahydrobenzo[b]thiophene-2-carboxamide] gave an IC50 of 0.0231 µM.

On to `C=CC(=O)Nc1cc(Nc2cc(-c3cccc(NC(=O)c4cccc(OC)c4)c3C)cn(C)c2=O)ccc1C(=O)N1CCOCC1` [Compound 59, N-(3-(5-((3-acrylamide-4-(morpholin-4-carbonyl)phenyl)amino)-1-methyl-6-oxo-1,6-dihydropyridin-3-yl)-2-methylphenyl)-3-methoxy Benzoylamide], for which the IC50 is 0.816 µM.

`C=CC(=O)Nc1cc(Nc2cc(-c3cccc(NC(=O)c4cc5ccccc5s4)c3C)cn(C)c2=O)ccc1N1CCOCC1` [Compound 82, N-(3-(5-((3-acrylamide-4-morpholinophenyl)amino)-1-methyl-6-oxo-1,6-dihydropyridin-3-yl)-2-methylphenyl)benzo[b]thiophene-2-carboxamide]: the IC50 turned out to be 0.0988 µM.

As to `C=CC(=O)Nc1cc(Nc2cc(-c3cccc(NC(=O)c4ccc(C(C)(C)C)cc4)c3C)cn(C)c2=O)ccc1C(=O)N1CCCC(O)C1` (centres unmarked) [Compound 47, N-(3-(5-((3-acrylamide-4-(3-hydroxypiperidin-1-carbonyl)phenyl)amino)-1-methyl-6-oxo-1,6-dihydropyridin-3-yl)-2-methylphenyl)-4-(tert-butyl)benzamide], the IC50 stood at 0.024 µM.

With `C=CC(=O)Nc1cc(Nc2cc(-c3cccc(NC(=O)c4ccc(C(C)(C)C)cc4)c3C)cn(C)c2=O)ccc1C(=O)OC` [Compound 49, 2-acrylamide-4-((5-(3-(4-(tert-butyl)benzamide)-2-methylphenyl)-1-methyl-2-oxo-1,2-dihydropyridin-3-yl)amino)methyl benzoate], half-maximal inhibition (IC50) required 0.162 µM.

Regarding `C=CC(=O)Nc1cc(Nc2cc(-c3cccc(NC(=O)c4cc(C)cs4)c3C)cn(C)c2=O)ccc1C(=O)N1CCOCC1` [Compound 70, N-(3-(5-((3-acrylamide-4-(morpholin-4-carbonyl)phenyl)amino)-1-methyl-6-oxo-1,6-dihydropyridin-3-yl)-2-methylphenyl)-4-methylthiophene-2-carboxamide], the IC50 came out at 0.114 µM.

`C=CC(=O)Nc1cc(Nc2cc(-c3cccc(NC(=O)c4cc5ccccc5s4)c3C)cn(C)c2=O)ccc1N1CCC(N(C)C)CC1` [Compound 84, N-(3-(5-((3-acrylamide-4-(4-(dimethylamino)piperidin-1-yl)phenyl)amino)-1-methyl-6-oxo-1,6-dihydropyridin-3-yl)-2-methylphenyl)benzo[b]thiophene-2-carboxamide] showed a half-maximal inhibitory concentration (IC50) of 0.0078 µM. Against the preceding compound, the IC50 is about 15-fold lower.

Consider `C=CC(=O)Nc1cc(Nc2cc(-c3cccc(NC(=O)c4ccc(C5CC5)cc4)c3C)cn(C)c2=O)ccc1N1CCN(C)CC1` [Compound 72, N-(3-(5-((3-acrylamide-4-(4-methylpiperazin-1-yl)phenyl)amino)-1-methyl-6-oxo-1,6-dihydropyridin-3-yl)-2-methylphenyl)-4-cyclopropylbenzoylamide], for which the IC50 was 0.18 µM. Against the preceding compound, the IC50 is about 23-fold higher.

As for `C=CC(=O)Nc1cc(Nc2cc(-c3cccc(NC(=O)c4cc5ccccc5s4)c3C)cn(C)c2=O)ccc1N1CCN(C(C)C)CC1` [Compound 90, N-(3-(5-((3-acrylamide-4-(4-isopropylpiperazin-1-yl)phenyl)amino)-1-methyl-6-oxo-1,6-dihydropyridin-3-yl)-2-methylphenyl)benzo[b]thiophene-2-carboxamide], half-maximal inhibition (IC50) required 0.0065 µM.

As to `C=CC(=O)Nc1cc(Nc2cc(-c3cccc(NC(=O)c4cc5c(s4)CCCC5)c3C)cn(C)c2=O)ccc1N1CCOCC1` [Compound 78, N-(3-(5-((3-acrylamide-4-morpholinophenyl)amino)-1-methyl-6-oxo-1,6-dihydropyridin-3-yl)-2-methylphenyl)4,5,6,7-tetrahydrobenzo[b]thiophene-2-carboxamide], half-maximal inhibition (IC50) required 0.119 µM.

`C=CC(=O)Nc1cc(Nc2cc(-c3cccc(NC(=O)c4ccc(N5CCOCC5)cc4)c3C)cn(C)c2=O)ccc1C(=O)N1CCOCC1` [Compound 15, N-(3-(5-((3-acrylamide-4-(morpholin-4-carbonyl)phenyl)amino)-1-methyl-6-oxo-1,6-dihydropyridin-3-yl)-2-methylphenyl)-4-morpholinbenzoylamide]: half-maximal inhibition (IC50) required 0.262 µM. This IC50 is about 2.2-fold higher than that of the compound before.
